Laboratory results: patent US8207176B2 (Glaxo Group Limited, priority 2005, dated 2012)

target: T1, Recombinant human p38α (MKK6-activated) (Homo sapiens, UniProt Q16539); experiment: Time-resolved fluorescence resonance energy transfer (TR-FRET) kinase assay (standard or low volume); assay type: biochemical; design: key: Compounds are considered active in this assay if they demonstrate a pIC50 of greater than 4.6 up to about a pIC50 of greater than 10.0; conditions: MKK6-activated p38α 100 pM, GST-ATF2 400 nM, 120 minutes at room temperature; either assay format
T1 construct: His; made in house
T1 sequence (Q16539 whole entry): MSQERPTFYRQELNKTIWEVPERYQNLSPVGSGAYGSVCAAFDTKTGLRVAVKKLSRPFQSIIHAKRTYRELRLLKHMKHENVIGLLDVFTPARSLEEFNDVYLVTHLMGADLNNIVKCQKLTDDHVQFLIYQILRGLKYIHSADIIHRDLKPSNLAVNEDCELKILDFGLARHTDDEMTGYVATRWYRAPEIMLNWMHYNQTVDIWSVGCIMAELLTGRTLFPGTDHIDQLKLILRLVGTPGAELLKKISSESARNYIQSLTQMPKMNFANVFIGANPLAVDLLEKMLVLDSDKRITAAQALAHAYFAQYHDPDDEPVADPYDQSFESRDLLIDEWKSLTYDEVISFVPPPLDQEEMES
Protocol: It is noted that there are two assay formats shown above for the Fluorescence anisotropy kinase binding assay. The only difference between these two assays is the volume used and the plate type. […] The results described herein may have been performed in either assay format and are not differentiated as to which. […] TR-FRET Assay Time-Resolved Fluorescence Resonance Energy Transfer Kinase Standard Assay Recombinant human p38α was expressed as a His-tagged protein. To activate this protein, 3 μM unactivated p38α was incubated in 200 mM Hepes pH 7.4, 625 mM NaCl, 1 mM DTT with 27 nM active MKK6 (Upstate), 1 mM ATP and 10 mM MgCl2 The activity of the MKK6-activated p38α was assessed using a time-resolved fluorescence resonance energy transfer (TR-FRET) assay. Biotinylated-GST-ATF2 (residues 19-96, 400 nM final), ATP ([…]) and MgCl2 (5 mM final) in assay buffer (40 mM HEPES pH 7.4, 1 mM DTT) were added to wells containing 1 ul of various concentrations of compound or DMSO vehicle (3% final) in NUNC 384 well black plate. The reaction was initiated by the addition of MKK6-activated p38 (100 pM final) to give a total volume of 30 ul. The reaction was incubated for 120 minutes at room temperature, then terminated by the addition of 15 μl of 100 mM EDTA pH 7.4. Detection reagent (15 μl) in buffer (100 mM HEPES pH 7.4, 150 mM NaCl, 0.1% w/v BSA, 1 mM DTT) containing antiphosphothreonine-ATF2-71 polyclonal antibody (Cell Signalling Technology, Beverly Mass., USA) labelled with W-1024 europium chelate (Wallac OY, Turku, Finland), and APC-labelled streptavidin (Prozyme, San Leandro, Calif., USA) was added and the reaction was further incubated for 60 minutes at room temperature. The degree of phosphorylation of GST-ATF2 was measured using a Packard Discovery plate reader (Perkin-Elmer Life Sciences, Pangbourne, UK) as a ratio of specific 665 nm energy transfer signal to reference europium 620 nm signal. Time-Resolved Fluorescence Resonance Energy Transfer Kinase Low Volume Assay Recombinant human p38α was expressed as a His-tagged protein. To activate this protein, 3 μM unactivated p38α was incubated in 200 mM Hepes pH7.4, 625 mM NaCl, 1 mM DTT with 27 nM active MKK6 (Upstate), 1 mM ATP and 10 mM MgCl2 The activity of the MKK6-activated p38α was assessed using a time-resolved fluorescence resonance energy transfer (TR-FRET) assay. Biotinylated-GST-ATF2 (residues 19-96, 400 nM final), ATP (125 μM final) and MgCl2 ([…]) in assay buffer (40 mM HEPES pH 7.4, 1 mM DTT) were added to wells containing 0.1 μl of various concentrations of compound or DMSO vehicle (1.7% final) in Greiner low volume 384 well black plate. The reaction was initiated by the addition of MKK6-activated p38α (100 pM final) to give a total volume of 6 μl. The reaction was incubated for 120 minutes at room temperature, then terminated by the addition of 3 μl of detection reagent in buffer (100 mM HEPES pH 7.4, 150 mM NaCl, 0.1% w/v BSA, 1 mM DTT, 100 mM EDTA) containing antiphosphothreonine-ATF2-71 polyclonal antibody (Cell Signalling Technology, Beverly Mass., USA) labelled with W-1024 europium chelate (Wallac OY, Turku, Finland), and APC-labelled streptavidin (Prozyme, San Leandro, Calif., USA). The reaction was further incubated for 60 minutes at room temperature. The degree of phosphorylation of GST-ATF2 was measured using a BMG Rubystar plate reader (BMG, UK) as a ratio of specific 665 nm energy transfer signal to reference europium 620 nm signal. It is noted that there are two assay formats shown above for the Time-resolved fluorescence resonance energy transfer kinase assay. The only difference between these two assays is the volume used and the plate type. […] The results described herein may have been performed in either assay format and are not differentiated as to which. […] For purposes herein the HTRF assay and the Fluorescence anisotropy kinase binding assay: […]

**Q.** Which “pIC50, reported as active” value does the source give for `CNC1CCN(c2nc(-c3cc(C(=O)Nc4ccc(F)cc4)ccc3C)c3ccc(=O)n(-c4c(F)cccc4F)c3n2)CC1` [114(b), 3-{8-(2,6-difluorophenyl)-2-[4-(methylamino)-1-piperidinyl]-7-oxo-7,8-dihydropyrido[2,3-d]pyrimidin-4-yl}-N-(4-fluorophenyl)-4-methylbenzamide] here?
**A.** The value was “active”.

**Q.** Which “pIC50, reported as active” value does the source give for `CCN(CC)CCCNc1nc(-c2cc(C(=O)O)ccc2C)c2ccc(=O)n(-c3c(F)cccc3F)c2n1` [118(a), 3-[2-{[3-(diethylamino)propyl]amino}-8-(2,6-difluorophenyl)-7-oxo-7,8-dihydropyrido[2,3-d]-pyrimidin-4-yl]-4-methylbenzoic acid] here?
**A.** Its value is “active”.

tested on: influx of neutrophils to the lung in LPS-challenged rats; experiment: Rat LPS neutrophilia model; assay type: in vivo; conditions: intratracheal, LPS aerosol 100 ug/ml 15 min, lavage 4 hours later, in at least one of the range of conditions tested, significant p<0.05, nonsignificant p>0.05
Protocol: The effect of compounds on the influx of neutrophils to the lung in LPS-challenged rats is evaluated as follows. The test compound is suspended in one of the following solutions: 0.5% tween 80/PBS, 0.5% tween 80/saline, 10% EtOH/saline (with pH adjusted to 2.0, or 8.0 with HCl, or unadjusted), Saline @ pH 2.0, 6.5 or 8.0, 0.5% Tragacanth, 1% DMSO/20% Encapsin/Saline, or acidified 5% Tragacanth. The suspension process may be aided by the use of a glass homogenizer. For intratracheal administration, the animals are anesthetized with inhaled isoflurane and placed in a supine position, the trachea is intubated with a steel gavage needle (1.5 inch, 22 gauge, small ball) or a Penn-Century Microsprayer Aerosolizer (model IA-IB) and 200 ul of dosing solution is delivered. The animals are visually monitored during the recovery process, which typically occurs within two minutes. It is noted that the test compounds may be alternatively administered via the microsprayer in a dry powder blend with a suitable excipient, such as lactose.
Rats treated with compound or vehicle (15 min-24 hours pretreatment) are exposed to an LPS aerosol (100 ug/ml) for 15 min. Four hours later the rats are euthanized with pentobarbital (100 mg/kg, i.p.) and the airways are lavaged with 5 washes of 5 ml of phosphate buffered saline. The harvested cells are stained (Diffquick) and counted to determine total and differential cell data. […] Inhibition of neutrophil levels relative to no compound controls is calculated based on the differential counts.
The data is obtained as % inhibition using a particular concentration and pretreat time.

**Q.** `CCN(CC)CCCNc1nc(-c2cc(C(=O)Nc3ccc(F)cc3)ccc2C)c2ccc(=O)n(-c3c(F)cccc3F)c2n1` [Example 160, 3-[2-{[3-(diethylamino)propyl]amino}-8-(2,6-difluorophenyl)-7-oxo-7,8-dihydropyrido[2,3-d]pyrimidin-4-yl]-N-(4-fluorophenyl)-4-methylbenzamide] was tested. Which “inhibition of neutrophilia (neutrophil levels in lung lavage relative to no compound controls)” value did it give?
**A.** Its value is “statistically significant inhibition”.

**Q.** With `CCCNC(=O)c1ccc(C)c(-c2nc(N3CCC(N4CCC(C)CC4)CC3)nc3c2ccc(=O)n3-c2c(F)cccc2F)c1` [Example 166, 3-[8-(2,6-difluorophenyl)-2-(4-methyl-1,4′-bipiperidin-1′-yl)-7-oxo-7,8-dihydropyrido[2,3-d]pyrimidin-4-yl]-4-methyl-N-propylbenzamide] as the molecule, how does the “inhibition of neutrophilia (neutrophil levels in lung lavage relative to no compound controls)” value read?
**A.** Its value is “statistically significant inhibition”.

**Q.** Which “inhibition of neutrophilia (neutrophil levels in lung lavage relative to no compound controls)” value does the source give for `CCCCNC(=O)c1ccc(C)c(-c2nc(N3CCC(N4CCC(C)CC4)CC3)nc3c2ccc(=O)n3-c2c(F)cccc2F)c1` [Example 167, N-butyl-3-[8-(2,6-difluorophenyl)-2-(4-methyl-1,4′-bipiperidin-1′-yl)-7-oxo-7,8-dihydropyrido[2,3-d]pyrimidin-4-yl]-4-methylbenzamide] here?
**A.** The value was “statistically significant inhibition”.

**Q.** For `Cc1ccc(C(=O)NCC(C)C)cc1-c1nc(N2CCC(N3CCC(C)CC3)CC2)nc2c1ccc(=O)n2-c1c(F)cccc1F` [Example 168, 3-[8-(2,6-difluorophenyl)-2-(4-methyl-1,4′-bipiperidin-1′-yl)-7-oxo-7,8-dihydropyrido[2,3-d]pyrimidin-4-yl]-4-methyl-N-(2-methylpropyl)benzamide], which “inhibition of neutrophilia (neutrophil levels in lung lavage relative to no compound controls)” value is on record?
**A.** The value was “inactive”.

**Q.** `Cc1ccc(C(=O)NC2CCCC2)cc1-c1nc(N2CCC(N3CCC(C)CC3)CC2)nc2c1ccc(=O)n2-c1c(F)cccc1F` [Example 169, N-cyclopentyl-3-[8-(2,6-difluorophenyl)-2-(4-methyl-1,4′-bipiperidin-1′-yl)-7-oxo-7,8-dihydropyrido[2,3-d]pyrimidin-4-yl]-4-methylbenzamide] was tested. Which “inhibition of neutrophilia (neutrophil levels in lung lavage relative to no compound controls)” value did it give?
**A.** The value was “statistically nonsignificant inhibition”.

**Q.** With `Cc1ccc(C(=O)NCC(F)(F)F)cc1-c1nc(N2CCC(N3CCC(C)CC3)CC2)nc2c1ccc(=O)n2-c1c(F)cccc1F` [Example 172, 3-[8-(2,6-difluorophenyl)-2-(4-methyl-1,4′-bipiperidin-1′-yl)-7-oxo-7,8-dihydropyrido[2,3-d]pyrimidin-4-yl]-4-methyl-N-(2,2,2-trifluoroethyl)benzamide] as the molecule, how does the “inhibition of neutrophilia (neutrophil levels in lung lavage relative to no compound controls)” value read?
**A.** Its value is “inactive”.

**Q.** `CCNC(=O)c1ccc(C)c(-c2nc(N3CCC(N4CCC(C)CC4)CC3)nc3c2ccc(=O)n3-c2c(F)cccc2F)c1` [Example 173, 3-[8-(2,6-difluorophenyl)-2-(4-methyl-1,4′-bipiperidin-1′-yl)-7-oxo-7,8-dihydropyrido[2,3-d]pyrimidin-4-yl]-N-ethyl-4-methylbenzamide] was tested. Which “inhibition of neutrophilia (neutrophil levels in lung lavage relative to no compound controls)” value did it give?
**A.** The value was “statistically significant inhibition”.

**Q.** How did the “inhibition of neutrophilia (neutrophil levels in lung lavage relative to no compound controls)” value turn out when `Cc1ccc(C(=O)Nc2ccc(F)cc2)cc1-c1nc(N2CCC(N3CCC(C)CC3)CC2)nc2c1ccc(=O)n2-c1c(F)cccc1F` [Example 174, 3-[8-(2,6-difluorophenyl)-2-(4-methyl-1,4′-bipiperidin-1′-yl)-7-oxo-7,8-dihydropyrido[2,3-d]pyrimidin-4-yl]N-(4-fluorophenyl)-4-methylbenzamide] was run?
**A.** Its value is “inactive”.

**Q.** Which “inhibition of neutrophilia (neutrophil levels in lung lavage relative to no compound controls)” value does the source give for `Cc1ccc(C(=O)NC2CCC2)cc1-c1nc(N2CCC(N3CCC(C)CC3)CC2)nc2c1ccc(=O)n2-c1c(F)cccc1F` [Example 175, N-cyclobutyl-3-[8-(2,6-difluorophenyl)-2-(4-methyl-1,4′-bipiperidin-1′-yl)-7-oxo-7,8-dihydropyrido[2,3-d]pyrimidin-4-yl]-4-methylbenzamide] here?
**A.** The value was “inactive”.

**Q.** With `Cc1ccc(C(=O)NC2CC2)cc1-c1nc(N2CCC(N3CCC(C)CC3)CC2)nc2c1ccc(=O)n2-c1c(F)cccc1F` [Example 178, N-cyclopropyl-3-[8-(2,6-difluorophenyl)-2-(4-methyl-1,4′-bipiperidin-1′-yl)-7-oxo-7,8-dihydropyrido[2,3-d]pyrimidin-4-yl]-4-methylbenzamide] as the molecule, how does the “inhibition of neutrophilia (neutrophil levels in lung lavage relative to no compound controls)” value read?
**A.** The value was “statistically nonsignificant inhibition”.

**Q.** Which “inhibition of neutrophilia (neutrophil levels in lung lavage relative to no compound controls)” value does the source give for `CCCNC(=O)c1cc(F)c(C)c(-c2nc(NCCCN(CC)CC)nc3c2ccc(=O)n3-c2c(F)cccc2F)c1` [Example 181, 3-[2-{[3-(diethylamino)propyl]amino}-8-(2,6-difluorophenyl)-7-oxo-7,8-dihydropyrido[2,3-d]-pyrimidin-4-yl]-5-fluoro-4-methyl-N-propylbenzamide] here?
**A.** The value was “statistically nonsignificant inhibition”.

**Q.** Which “inhibition of neutrophilia (neutrophil levels in lung lavage relative to no compound controls)” value does the source give for `CCN(CC)CCCNc1nc(-c2cc(C(=O)NC3CC3)cc(F)c2C)c2ccc(=O)n(-c3c(F)cccc3F)c2n1` [Example 185, N-cyclopropyl-3-[2-{[3-(diethylamino)propyl]amino}-8-(2,6-difluorophenyl)-7-oxo-7,8-dihydropyrido[2,3-d]-pyrimidin-4-yl]-5-fluoro-4-methylbenzamide] here?
**A.** The value was “statistically nonsignificant inhibition”.
